Results reported in a melting point compilation (Tetko et al.; mined from patent text by program, amines drawn as free bases though some values may be those of a salt).

Row | Compound | melting point
1 | COc1cc(O)cc(Cl)c1 | 94 to 96 °C
2 | O=C(CCC(=O)N1CCC[C@H]1C(=O)O)c1ccc(Cl)s1 | 131 to 133 °C
3 | Cc1cn(C(c2ccccc2)(c2ccccc2)c2ccccc2)cn1 | 214 to 216 °C
4 | COc1cccc(OC)c1-c1ccc(C[C@H](NC(=O)c2c(Cl)cccc2Cl)C(=O)O)cc1NC(C)=O | 142 to 144 °C
5 | c1nc(Nc2ccc3[nH]ccc3c2)c2sc(-c3ccc(CNCCN4CCOCC4)cc3)cc2n1 | 100 to 111 °C
6 | O=C(O)c1cc(O)c(C(=O)c2ccc(Cl)cc2)c([N+](=O)[O-])c1 | 266 to 268 °C
7 | CCN1CCC(c2c[nH]c3ccc(NC(=O)c4ccco4)cc23)CC1 | 178 to 179 °C
8 | Cc1ccc(OCC(O)CNC(C)(C)C)c([N+](=O)[O-])c1[N+](=O)[O-] (stereo unspecified) | 104 to 106 °C
9 | Cc1cnc(CCCCNc2ncc(Cc3ccc(CO)nc3)c(=O)[nH]2)c(Br)c1 | 150 to 152 °C
10 | CCCOc1ccccc1-c1nc2ncccc2c(=O)[nH]1 | 110 to 111 °C
11 | COc1cccc(CNC(=O)c2[nH]c3ccc(Cl)cc3c2S(=O)(=O)c2ccccc2)c1 | 203 to 204 °C
12 | COc1ccccc1Oc1c(NS(=O)(=O)c2ccc(C)cn2)nc(N2CCOCC2)nc1OCCO | 195 to 196 °C
13 | C=C(Cc1ccccc1)C(=O)NCC(=O)O | 82 °C
14 | CCCCCCCOCC1OC1CO (stereo unspecified) | 50 to 52 °C
15 | CCn1c(=O)c2c(nc(/C=C/c3cccc(C(C)=O)c3)n2C)n(CC)c1=O | 221 to 222 °C
16 | CCCCCCCCCCCCc1ccccc1C(SC(CC(=O)O)C(=O)O)C(=O)O (stereo unspecified) | 85 to 89 °C
17 | CC1Cc2nc(-c3ccccc3)[nH]c(=O)c2CC1S(=O)(=O)c1ccccc1 (stereo unspecified) | 247 °C
18 | CCCOc1ccc(CC(C)=O)cc1S(N)(=O)=O | 106 to 107 °C
19 | CCCCCC1C=CC(c2ccc(Br)cc2)=CC1 (stereo unspecified) | 74 °C
20 | CC(=NO)c1ccc2c(c1)CCCN2C(=O)OC(C)(C)C | 127 to 129 °C
21 | N#CCCNC(=O)c1n[nH]cc1NC(=O)c1cccc(C(F)(F)F)c1 | 188 to 190 °C
22 | CC(=O)Oc1cc2c(cc1F)C1(OC(=O)c3c1ccc(N)c3N)c1cc(F)c(OC(C)=O)cc1O2 | 135 °C
23 | Oc1c(Cl)cc(Cn2c(=S)sc3ccccc32)cc1Cl | 169 to 172 °C
24 | C#CCOc1cc(C(=O)O)cc(N)c1C(=O)c1ccccc1 | 192 °C
25 | CCCCC(COc1ccc(-c2cccc(CC#N)c2)cc1)N(O)C=O (stereo unspecified) | 99 to 101 °C
26 | CSc1nc(O)nn1-c1ccccc1 | 176 to 177 °C

Row | Compound | melting point
27 | Cc1c(OCC(F)(F)F)ccnc1CSc1nc2ccccc2[nH]1 | 142 to 144 °C
28 | CCOCc1nc2c(N)nc3ccccc3c2n1CCC(=O)N1CCOCC1 | 187 to 189 °C
29 | CCOC(=O)C1=C(N)NC(C)=C(C(=O)OC)C1c1cc([N+](=O)[O-])ccc1Cl (stereo unspecified) | 124 °C
30 | CCOP(=O)(Cc1ccc(NC(=O)c2sc(SC)c3c2CCc2sc(CC)nc2-3)cc1)OCC | 179 to 180 °C
31 | ClC1CCCOC1c1ccccc1 (stereo unspecified) | 39.5 to 40.5 °C
32 | c1ccc(-c2nnc(NCC3CC3)cc2-c2ccncc2)cc1 | 199 to 200 °C
33 | O=C1CCCC1Oc1cccc2onc(OCC3CCN(CC4(O)CCOCC4)CC3)c12 (stereo unspecified) | 133 °C
34 | COc1ccc(C=O)c(OCC#N)c1 | 96 to 101 °C
35 | NC(=O)NC1CCN2CCc3ccccc3C2C1 (stereo unspecified) | 235 °C
36 | CC(C)(C)[Si](C)(C)Oc1ccc2c(c1)C(=O)c1ccc(O[Si](C)(C)C(C)(C)C)cc1C2=O | 131 to 133 °C
37 | CNc1ncc2c(n1)-c1ccc(Cl)cc1C(c1ccccc1F)=NC2 | 172 to 179 °C
38 | CCOC(=O)C1=C(COCCNC2=NCCS2)NC(C)=C(C(=O)OC)C1c1ccccc1Cl (stereo unspecified) | 145 to 147 °C
39 | Cc1c(-c2ccc([N+](=O)[O-])cc2)sc2c1c(=O)n(-c1ccccc1)c(=O)n2Cc1c(F)cccc1F | 280 to 282 °C
40 | CCS(=O)c1cccnc1S(=O)(=O)NC(C)(C)C (stereo unspecified) | 129 to 131 °C
41 | CC(Sc1nc(N)cc(C(F)(F)F)n1)c1cc2ccoc2cn1 (stereo unspecified) | 180 to 182 °C
42 | Cc1ccc(S(=O)(=S)OCc2ccccc2)cc1 (stereo unspecified) | 52 to 56.5 °C
43 | CCOc1ncc(S(=O)(=O)N2CCN(CC)CC2)cc1C(=O)Nc1c(C(N)=O)nn(CCOC)c1CC | 156 °C
44 | O=C1C=CC(O)(c2nc3ccccc3s2)C(Cl)=C1 (stereo unspecified) | 140 to 143 °C
45 | Cn1c(C(F)(F)F)cc(=O)n(-c2nc(Cl)c(Cl)cc2F)c1=O | 113 to 115 °C
46 | COC(=O)c1cc(OC)c(OS(=O)(=O)C(F)(F)F)cc1[N+](=O)[O-] | 69 to 70 °C
47 | O=C1c2ccccc2C(=O)N1CC(=O)N1c2ccccc2N(Cc2ccc([N+](=O)[O-])cc2)C(=O)[C@H]2CCC[C@H]21 (relative stereo) | 224 to 225 °C
48 | CCN(CC)c1nc2ccnn2c2ncccc12 | 102 °C
49 | CCOC(=O)c1ccc(NC=O)c(C(=O)CCNC(=O)OC(C)(C)C)c1 | 135 to 137 °C
50 | O=C(c1cccc(C(F)(F)F)c1)N(CCCCn1ccnc1)C1=Nc2cccc3cccc1c23 | 165 to 167 °C
51 | Cc1nc2c(OCc3ccccc3)cc(C(=O)N(C)C)cc2n1COCC[Si](C)(C)C | 118 to 120 °C
52 | CCc1cccc(C(C#N)c2nc(OC)cc(OC)n2)c1[N+](=O)[O-] (stereo unspecified) | 113 to 114 °C

Row | Compound | melting point
53 | COC(=O)c1cc(F)c(N2CCN(C(C)=O)CC2)nc1Nc1ccc(F)cc1F | 172 to 173 °C
54 | O=C(Oc1cc(-c2ccccc2)nc2ccccc12)N1CCOCC1 | 127 °C
55 | COC(=O)c1ccc(C(=O)CC(=O)c2ccc3c(c2)C(C)(C)CCC3(C)C)cc1 | 128 °C
56 | COc1cc(N2CCOCC2)ccc1Nc1nc(Nc2ccc(OC)c3c2N(C)C(=O)CCC3)ncc1Cl | 230 to 232 °C
57 | N#Cc1[nH]c(Br)c(C#N)c1Br | 227 to 232 °C
58 | O=[N+]([O-])c1ccccc1Sc1ncc[nH]1 | 137 to 138 °C
59 | Cc1nn2c(-c3cc(Cl)ccc3Cl)ccnc2c1C(N)=O | 234 to 236 °C
60 | Cc1nc2cc(NCC(=O)C3(C)CC3)ccc2s1 | 116 to 120 °C
61 | CC(C)(Oc1ccc(OCc2ccc3nn(-c4ccc(C(F)(F)F)cc4)cc3c2)cc1)C(=O)O | 203 to 205 °C
62 | Cc1ccc(Cl)cc1C(=O)CO | 55 to 57 °C
63 | CC=C1CC2C3CCc4cc(OC)ccc4C3CCC2(CC)C1=O (stereo unspecified) | 155 to 157 °C
64 | CCN(CC)C(=O)n1cnc(Sc2cc(F)c(C#N)cc2F)n1 | 80 °C
65 | COc1cc2c(cc1OC)C1c3ccccc3CCN1C2 (stereo unspecified) | 186 °C
66 | COc1ccc(S(=O)(=O)n2ccc3ccnc(Nc4ccc(F)cc4)c32)cc1 | 125 to 127 °C
67 | CCCCCCCCCCCCCCCCOC(=O)c1cc(C(=O)OCCCCCCCCCCCCCCCC)cc(S(=O)(=O)O)c1 | 63 to 65 °C
68 | CCOC(=O)C=Cc1ccc(C#CC2(O)CN3CCC2CC3)c(OCC)c1 (stereo unspecified) | 152 to 153 °C
69 | COC(=O)CP(=O)(O)C(CCCc1ccccc1)NC(=O)OCc1ccccc1 (stereo unspecified) | 107 to 109 °C
70 | CCCCCCCCCCCCCCCCSCC(CO)NC(=O)OC(C)(C)C (stereo unspecified) | 48 to 50 °C
71 | CC1=C(c2cccc(C(F)(F)F)c2)n2ncc(C#N)c2N(C(=O)CCl)C1 | 178 to 182 °C
72 | CC(C)[C@@H]1CC[C@@H](C)C[C@H]1C(=O)Nc1ccc(CC#N)cc1 | 146 to 150 °C
73 | COc1cc(-n2cnnc2I)ccc1C | 123 °C
74 | Cc1nn(C)c2c(O)nc(C3CC3)nc12 | 238 to 240 °C
75 | CCOC(=O)C(=CNc1ccc(F)c(-c2ccncc2)n1)C(=O)OCC | 140 to 141 °C
76 | O=C(Nc1cccc2cc(Br)cnc12)c1ccc(O)c(O)c1O | 183 to 193 °C
77 | CCCCCCCCN1CC(C(=O)OC)N(S(=O)(=O)c2ccc(NC(=O)c3ccc(Cl)cc3)cc2)CC1=O (stereo unspecified) | 171 to 173 °C
78 | COc1ccc(N2CC(=O)N(CCN)C2=O)cc1OC | 162 to 164 °C

Row | Compound | melting point
79 | CCCCCCCCCCCCCCCCCCOCC(COC1CCCCO1)NC(C)=O (stereo unspecified) | 52 to 55 °C
80 | CCCCc1nc2cccc(C(=O)O)c2n1Cc1ccn2c(C(=O)O)c(-c3ccccc3)nc2c1 | 202 to 204 °C
81 | CCc1nnc2c(OC)nc3cc(Cl)ccc3n12 | 221 to 223 °C
82 | N#C/C=C/c1cn(-c2c(Cl)cc(C(F)(F)F)cc2Cl)nc1C#N | 144 to 145 °C
83 | CC1(C)C(=O)Nc2ccc(NC(=O)c3ccncc3)cc21 | > 300 °C
84 | CC(C)(C)OC(=O)CCCCCOc1ccc2sc(-c3ccccn3)nc(=O)c2c1 | 101 to 102 °C
85 | CCNc1nc(CC)c(-c2ccncc2)s1 | 126 to 128 °C
86 | CCn1cc(C(=O)O)c(=O)c2cc(F)c(N3CCC(CNCCO)C3)c(F)c21 (stereo unspecified) | 215 to 216 °C
87 | Cc1cc(Nc2cc(Cl)nc(-c3ccccc3)n2)[nH]n1 | 235 to 236 °C
88 | CC(C)(C)c1ccc(C(O)CCCN2CCC(=C3c4ccccc4COc4ccccc43)CC2)cc1 (stereo unspecified) | 160 to 161 °C
89 | O=C1N(CO)c2cccc(Cl)c2C1(CO)c1cc2c(cc1O)OCO2 (stereo unspecified) | > 210 °C
90 | O=C1CCC(O)=C1Cc1ccc2ccccc2c1 | 230 to 231 °C
91 | CNC(=O)N1CCc2[nH]cnc2C1C1CCCCC1 (stereo unspecified) | 250 °C
92 | CSC(=S)C1(c2ccccn2)CCCCS1 (stereo unspecified) | 79 °C
93 | CNc1ccc(S(=O)(=O)Nc2ccccc2)cc1 | 113 to 114 °C
94 | Cc1ccccc1CC(=NC#N)NC(NC(=O)Cc1cccnc1)C(C)(C)C (stereo unspecified) | 84 to 86 °C
95 | Cc1ncc(C(=O)Nc2ccc(-n3nc(C(F)(F)F)cc3C3CC3)cc2)c(C)n1 | 145 to 147 °C
96 | C#CC(=O)N1CCN(C(=O)OC2C3=C(OCCS3)C(=O)N2c2ccc3ccc(Cl)nc3n2)CC1 (stereo unspecified) | 302 °C
97 | COc1ccc(OC)c(CCNC(=O)N(C)O)c1 | 73 to 74 °C
98 | C[C@H](Oc1c(I)c(C(=O)NC(CO)CO)c(I)c(C(=O)NC(CO)CO)c1I)C(N)=O | 110 °C
99 | CC(=O)CS(=O)(=O)CCc1ccc2c(c1)OCO2 | 97 to 99 °C
100 | O=C(N[C@H](Cc1cccc(OC(F)(F)C(F)F)c1)[C@@H](O)c1ccc(CN2CCCCC2)cc1)c1cccc2c1C=CCCC2 (racemic) | 104 to 106 °C
101 | Nc1cc(C(=O)O)cc(N)c1O | 205 °C
